For series [1], the target named is T1, recombinant human CB1 receptors (Homo sapiens, UniProt P21554).
T1 construct: expressed in transfected cells; host or cells: HEK293 cells
Nature of the series: Binding to recombinant human CB1 receptors ([3H]-SR-141716A displacement, HEK293 membranes). Particulars: [3H]-SR-141716A 1 nM; membranes of HEK293 cells expressing hCB1; Ki from IC50 by Cheng-Prusoff. How it is done: The binding of compounds of Formula I to recombinant human CB1 receptors was determined in vitro by standard methods, with reference to the procedure described by Rinaldi-Carmona et al. (Rinaldi-Carmona, M., Pialot, F., Congy, C., Redon, E., Bart, F., Bachy, A., Breliere, J. C., Soubre, P., LeFur, G., Life Sci. 1996, 58(15), 1239-1247). Membranes were prepared from HEK293 cells expressing recombinant hCB1 receptors. Binding assays are performed in a total volume of 250 μL, containing [^3H]-SR-141716A (1 nM final concentration), membranes and test compound. Non-specific binding is determined using CP55,940 (10 μM). Serial dilutions are performed starting from test compounds as 10 mM solutions in DMSO. Compounds are tested over the concentration range 10^−10 M to 10^−5 M. Ki values are calculated from IC50 values using the Cheng-Prusoff equation.

Structures are written as SMILES.

Usually Ki stands for the dissociation constant of the complex between target and ligand, obtained from inhibition or displacement. Broadly, the melting point is the temperature of the solid-liquid transition.

T1 sequence (P21554 whole entry): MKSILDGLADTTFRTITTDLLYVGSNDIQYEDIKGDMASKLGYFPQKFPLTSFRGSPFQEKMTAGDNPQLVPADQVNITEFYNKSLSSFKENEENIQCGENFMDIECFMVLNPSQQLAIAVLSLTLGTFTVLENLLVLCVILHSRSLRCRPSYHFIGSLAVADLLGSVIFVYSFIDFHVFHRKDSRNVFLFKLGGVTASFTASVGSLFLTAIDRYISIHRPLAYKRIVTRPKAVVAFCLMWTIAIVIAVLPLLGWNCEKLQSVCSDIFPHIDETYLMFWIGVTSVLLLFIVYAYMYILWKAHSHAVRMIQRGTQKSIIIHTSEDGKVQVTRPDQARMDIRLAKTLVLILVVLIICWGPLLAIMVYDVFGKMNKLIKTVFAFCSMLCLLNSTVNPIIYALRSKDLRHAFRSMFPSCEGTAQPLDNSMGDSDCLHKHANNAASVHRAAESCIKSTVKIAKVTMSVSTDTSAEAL

For the compound `C=CCNC(=O)N1CC(OC(c2ccc(Cl)cc2)c2ccc(Cl)cc2)C1` [Example 6, 3-(Bis(4-chlorophenyl)methoxy)-N-(2-propenyl)azetidine-1-carboxamide], the Ki in series [1] was found to be 285 nM.

As for `C[C@@H](O)CNC(=O)N1CC(OCc2ccc(Cl)cc2)C1` [Example 36], the melting point is 76 to 78 °C.

In the case of `CCC(OC1CN(C(N)=O)C1)c1cccc(C(F)(F)F)c1` (stereo not shown) [Example 42], the melting point is 110.5 to 112 °C.

The compound `NC(=O)N1CC(OCc2cccc(Cl)c2)C1` [Example 44, 3-((3-chlorophenyl)methoxy)-azetidine-1-carboxamide] registered a melting point of 163 to 165.5 °C.

The values are drawn from patent publication US20060276452A1, “Use of azetidinecarboxamide derivatives in therapy” (VERNALIS RESEARCH LIMITED, priority 2003, published 2006).
